Data as given in patent US11964949B2, “Substituted phenyloxazolidinones for antimicrobial therapy” (priority 2015, dated 2024).
In brackets after ≈: the same amount, converted by molar mass. Read-outs that look alike come from different tables or passages of the source.

Columns and labels:
tuberculosis = details: cited from earlier work
[1] = tested on: mitochondrial protein synthesis (MPS) in H9C2 cells; assay: In vitro assay for MPS inhibition (COX-1 / SDH-A ELISA in H9C2 cells); format: cell-based, rat; details: read-out: IC50 (μM) MPS inhibition
[2] = tested on: Mycobacterium tuberculosis H37Rv; assay: In vitro assay for antimicrobial susceptibility (microplate Alamar blue, MIC); format: cell-based; details: for MIC: Mycobacterium tuberculosis, read-out: MIC (μg/mL) against H37Rv
[3] = Rattus norvegicus, 120 h, H9C2 cells, 5 days incubation
[4] = M. tuberculosis H37Rv, 7H9 broth, Alamar blue

Compound: CC(=O)NC[C@H]1CN(c2ccc(N3CCOCC3)c(F)c2)C(=O)O1 [Linezolid]
- activity in murine models of tuberculosis (tuberculosis): only modest activity

Compound: CC(=O)NC[C@H]1CN(c2ccc(N3CC4(CSC4)C3)c(F)c2)C(=O)O1 [OTB-261, (S)—N-((3-(3-Fluoro-4-(2-thia-6-azaspiro[3.3]heptan-6-yl)phenyl)-2-oxo-oxazolidin-5-yl)methyl)acetamide]
- IC50 [1, 3]: 2 µM
- MIC [2, 4]: 0.12 µg/mL (≈ 0.328 µM)

Compound: CC(=O)NC[C@H]1CN(c2cc(F)c(N3CCCSCC3)c(F)c2)C(=O)O1 [OTB-407, (S)—N-((3-(3,5-Difluoro-4-(1,4-thiazepan-4-yl)phenyl)-2-oxo-oxazolidin-5-yl)methyl)acetamide]
- IC50 [1, 3]: 3.08 µM
- MIC [2, 4]: 0.097 µg/mL (≈ 0.252 µM)

Compound: O=C(NC[C@H]1CN(c2cc(F)c(N3CCCSCC3)c(F)c2)C(=O)O1)C1CC1 [OTB-408]
- IC50 [1, 3]: 3.61 µM
- MIC [2, 4]: 0.342 µg/mL (≈ 0.831 µM)

Compound: O=C(NC[C@H]1CN(c2cc(F)c(N3CCCSCC3)c(F)c2)C(=O)O1)C1CCC1 [OTB-409]
- IC50 [1, 3]: 8.51 µM
- MIC [2, 4]: 0.477 µg/mL (≈ 1.12 µM)

Compound: COC(=O)NC[C@H]1CN(c2cc(F)c(N3CCCSCC3)c(F)c2)C(=O)O1 [OTB-410, Methyl (S)-((3-(3,5-difluoro-4-(1,4-thiazepan-4-yl)phenyl)-2-oxo-oxazolidin-5-yl)methyl)carbamate]
- IC50 [1, 3]: > 100 µM
- MIC [2, 4]: 0.125 µg/mL (≈ 0.311 µM)

Compound: O=C1O[C@@H](Cn2ccnn2)CN1c1cc(F)c(N2CCCSCC2)c(F)c1 [OTB-411, (R)-5-((1H-1,2,3-triazol-1-yl)methyl)-3-(3,5-difluoro-4-(1,4-thiazepan-4-yl)phenyl)oxazolidin-2-one]
- IC50 [1, 3]: 8.73 µM
- MIC [2, 4]: 0.124 µg/mL (≈ 0.314 µM)

Compound: COC(=O)NC[C@H]1CN(c2ccc(N3CCCSCC3)c(F)c2)C(=O)O1 [OTB-412, Methyl (S)-((3-(3-fluoro-4-(1,4-thiazepan-4-yl)phenyl)-2-oxo-oxazolidin-5-yl)methyl) carbamate]
- IC50 [1, 3]: 10 µM
- MIC [2, 4]: 0.199 µg/mL (≈ 0.519 µM)

Compound: O=C(NC[C@H]1CN(c2ccc(N3CCCSCC3)c(F)c2)C(=O)O1)C1CC1 [OTB-413, (S)—N-((3-(3-Fluoro-4-(1,4-thiazepan-4-yl)phenyl)-2-oxo-oxazolidin-5-yl)methyl)cyclopropanecarboxamide]
- IC50 [1, 3]: 9.13 µM
- MIC [2, 4]: 0.108 µg/mL (≈ 0.274 µM)

Compound: CC(=O)NC[C@H]1CN(c2ccc(N3[C@@H]4CC[C@H]3CSC4)c(F)c2)C(=O)O1 [OTB-502, N—(((S)-3-(4-((1R,5S)-3-Thia-8-azabicyclo[3.2.1]octan-8-yl)-3-fluorophenyl)-2-oxooxazolidin-5-yl)methyl)acetamide]
- IC50 ([1]; Rattus norvegicus, H9c2, 120 h): 13.6 µM
- MIC ([2]; H37RV): 0.246 µg/mL (≈ 0.648 µM)

Compound: O=C(NC[C@H]1CN(c2ccc(N3[C@@H]4CC[C@H]3CSC4)c(F)c2)C(=O)O1)C1CC1 [OTB-506, N—(((S)-3-(4-((1R,5S)-3-Thia-8-azabicyclo[3.2.1]octan-8-yl)-3-fluorophenyl)-2-oxo-oxazolidin-5-yl)methyl)cyclopropanecarboxamide]
- IC50 ([1]; Rattus norvegicus, H9c2, 120 h): 8 µM
- MIC ([2]; H37RV): 1 µg/mL (≈ 2.47 µM)

Compound: O=C(NC[C@H]1CN(c2ccc(N3[C@@H]4CC[C@H]3CSC4)c(F)c2)C(=O)O1)C1CCC1 [OTB-507, N—(((S)-3-(4-((1R,5S)-3-Thia-8-aza-bicyclo[3.2.1]octan-8-yl)-3-fluorophenyl)-2-oxo-oxazolidin-5-yl)methyl)cyclobutanecarboxamide]
- IC50 ([1]; Rattus norvegicus, H9c2, 120 h): 10 µM
- MIC ([2]; H37RV): 0.7 µg/mL (≈ 1.67 µM)

Compound: O=C(NC[C@H]1CN(c2cc(F)c(N3[C@@H]4CC[C@H]3CSC4)c(F)c2)C(=O)O1)C1CC1 [OTB-508, N—(((S)-3-(4-((1R,5S)-3-Thia-8-aza-bicyclo[3.2.1]octan-8-yl)-3,5-difluorophenyl)-2-oxo-oxazolidin-5-yl)methyl)cyclopropanecarboxamide]
- IC50 ([1]; Rattus norvegicus, H9c2, 120 h): 8 µM
- MIC ([2]; H37RV): 0.2 µg/mL (≈ 0.472 µM)

Compound: O=C(NC[C@H]1CN(c2cc(F)c(N3[C@@H]4CC[C@H]3CSC4)c(F)c2)C(=O)O1)C1CCC1 [OTB-509, N—(((S)-3-(4-((1R,5S)-3-Thia-8-aza-bicyclo[3.2.1]octan-8-yl)-3,5-difluorophenyl)-2-oxo-oxazolidin-5-yl)methyl)cyclobutanecarboxamide]
- IC50 ([1]; Rattus norvegicus, H9c2, 120 h): 5 µM
- MIC ([2]; H37RV): 0.04 µg/mL (≈ 0.0914 µM)

Compound: CC(=O)NC[C@H]1CN(c2cc(F)c(N3[C@@H]4CC[C@H]3CSC4)c(F)c2)C(=O)O1 [OTB-510, N—(((S)-3-(4-((1R,5S)-3-Thia-8-aza-bicyclo[3.2.1]octan-8-yl)-3,5-difluorophenyl)-2-oxo-oxazolidin-5-yl)methyl)acetamide]
- IC50 ([1]; Rattus norvegicus, H9c2, 120 h): 3 to 7 µM
- MIC ([2]; H37RV): 0.03 to 0.22 µg/mL (≈ 0.0755 to 0.554 µM)

Compound: COC(=O)NC[C@H]1CN(c2cc(F)c(N3[C@@H]4CC[C@H]3CSC4)c(F)c2)C(=O)O1 [OTB-512, Methyl (((S)-3-(4-((1R,5S)-3-thia-8-azabicyclo[3.2.1]octan-8-yl)-3,5-difluorophenyl)-2-oxo-oxazolidin-5-yl)methyl)carbamate]
- IC50 ([1]; Rattus norvegicus, H9c2, 120 h): 42.5 µM
- MIC ([2]; H37RV): 0.063 µg/mL (≈ 0.152 µM)

Compound: O=C(NC[C@H]1CN(c2cc(F)c(N3[C@@H]4CC[C@H]3C[S+]([O-])C4)c(F)c2)C(=O)O1)C1CCC1 (stereo partly drawn) [OTB-513, N-(((5S)-3-(3,5-Difluoro-4-((1R,5S)-3-oxido-3-thia-8-azabicyclo[3.2.1]octan-8-yl)phenyl)-2-oxo-oxazolidin-5-yl)methyl)cyclobutanecarboxamide]
- IC50 ([1]; Rattus norvegicus, H9c2, 120 h): 13 µM
- MIC ([2]; H37RV): 1.66 µg/mL (≈ 3.67 µM)

Compound: CC(=O)NC[C@H]1CN(c2cc(F)c(N3[C@@H]4CC[C@H]3C[S+]([O-])C4)c(F)c2)C(=O)O1 (stereo partly drawn) [OTB-514, N-(((5S)-3-(3,5-Difluoro-4-((1R,5S)-3-oxido-3-thia-8-azabicyclo[3.2.1]octan-8-yl)phenyl)-2-oxo-oxazolidin-5-yl)methyl) acetamide]
- IC50 ([1]; Rattus norvegicus, H9c2, 120 h): 25 µM
- MIC ([2]; H37RV): 0.5 µg/mL (≈ 1.21 µM)

Compound: O=C1O[C@@H](CO)CN1c1cc(F)c(N2CC3(CSC3)C2)c(F)c1 [OTB-516, (R)-3-(3,5-Difluoro-4-(2-thia-6-azaspiro[3.3]heptan-6-yl)phenyl)-5-(hydroxymethyl) oxazolidin-2-one]
- IC50 [1, 3]: 15.3 µM
- MIC [2, 4]: 0.465 µg/mL (≈ 1.36 µM)

Compound: CS(=O)(=O)NC[C@H]1CN(c2cc(F)c(N3CC4(CSC4)C3)c(F)c2)C(=O)O1 [OTB-516-2A]
- IC50 [1, 3]: > 100 µM
- MIC [2, 4]: 0.05 µg/mL (≈ 0.119 µM)

Compound: CS(=O)(=O)NC[C@H]1CN(c2cc(F)c(N3CC4(C3)C[S+]([O-])C4)c(F)c2)C(=O)O1 [OTB-516-2B]
- IC50 [1, 3]: > 100 µM
- MIC [2, 4]: 3 µg/mL (≈ 6.89 µM)

Compound: CNC(=O)OC[C@H]1CN(c2cc(F)c(N3CC4(CSC4)C3)c(F)c2)C(=O)O1 [OTB-516-4A]
- IC50 [1, 3]: > 100 µM
- MIC ([2]; H37RV): 0.03 µg/mL (≈ 0.0751 µM)

Compound: CNC(=O)OC[C@H]1CN(c2cc(F)c(N3CC4(C3)C[S+]([O-])C4)c(F)c2)C(=O)O1 [OTB-516-4B]
- IC50 [1, 3]: > 100 µM
- MIC ([2]; H37RV): 4.7 µg/mL (≈ 11.3 µM)

Compound: O=C1O[C@@H](Cn2ccnn2)CN1c1cc(F)c(N2C3CCC2C[S+]([O-])C3)c(F)c1 (some centres unmarked) [OTB-517]
- IC50 ([1]; Rattus norvegicus, H9c2, 120 h): 30 to 55 µM
- MIC ([2]; H37RV): 1.3 to 2 µg/mL (≈ 3.07 to 4.72 µM)

Compound: COC(=O)NC[C@H]1CN(c2ccc(N3C4CCC3C[S+]([O-])C4)c(F)c2)C(=O)O1 (some centres unmarked) [OTB-518]
- IC50 ([1]; Rattus norvegicus, H9c2, 120 h): 73 µM
- MIC ([2]; H37RV): 3.5 µg/mL (≈ 8.51 µM)

Compound: COC(=O)NC[C@H]1CN(c2cc(F)c(N3C4CCC3C[S+]([O-])C4)c(F)c2)C(=O)O1 (some centres unmarked) [OTB-519]
- IC50 ([1]; Rattus norvegicus, H9c2, 120 h): 51 µM
- MIC ([2]; H37RV): 0.9 µg/mL (≈ 2.1 µM)

Compound: CC(=O)NC[C@H]1CN(c2cc(F)c(N3CC4(C3)C[S+]([O-])C4)c(F)c2)C(=O)O1 [OTB-520]
- IC50 [1, 3]: 17 µM
- MIC [2, 4]: 0.4 µg/mL (≈ 1 µM)

Compound: O=C1O[C@@H](Cn2ccnn2)CN1c1cc(F)c(N2CC3(C2)C[S+]([O-])C3)c(F)c1 [OTB-522]
- IC50 [1, 3]: 38 µM
- MIC [2, 4]: 1 µg/mL (≈ 2.44 µM)

Compound: CC(=O)NC[C@H]1CN(c2ccc(N3CC4(C3)C[S+]([O-])C4)c(F)c2)C(=O)O1 [OTB-523]
- IC50 [1, 3]: 4 µM
- MIC [2, 4]: 0.5 µg/mL (≈ 1.31 µM)

Compound: (R)-5-((2H-1,2,3-Triazol-2-yl)methyl)-3-(3-fluoro-4-(2-oxa-6-azaspiro[3.3]heptan-6-yl)phenyl)oxazolidin-2-one [OTB-204]
- IC50 ([1]; H9C2 cells, 5 days incubation): > 100 µM
- MIC (μg/mL) against H37Rv [2, 4]: 3.2 to 3.7 µg/mL
